One assay concerns HPC culture. The following applies: previously demonstrated, cited from earlier work.
The subject of the next assay is E4bp4. The following applies: cited from earlier work.
The next assay deals with HPCs. The assay is described as follows: NK cell production from HPCs treated with SR8278 and/or cultured on rDLL4 (flow cytometry). Format: cell-based, mouse. The following applies: SR8278 on day 2 of culture, no rDLL4; average of triplicate experiments. How it is done:
HPCs were cultured in four sets of conditions in addition to control (non-treated) conditions: (i) treated with SR8278 on day 2 of culture (no recombinant DLL4, rDLL4); (ii) cultured on rDLL4 (no SR8278); (iii) cultured on rDLL4 and treated with SR8278 on day 0 of culture; or (iv) treated with SR8278 on day 0 of culture, cultured on rDLL4 from day 2. Aside from the different treatments, the culture conditions were otherwise identical to those previously described for NK cell production from HPCs.
This experiment was repeated with an expanded set of culture conditions, as set out in FIG. 13. The results of this duplicate experiment are illustrated in FIG. 14.
Lineage negative HPCs were purified from mouse bone marrow by crushing the leg bones in Phosphate-buffered Saline (PBS) with 2% fetal calf serum (FCS) (STEMCELL Technologies), topped up to 40 ml with magnetic-activated cell sorting (MACS) buffer (PBS, 2 mM EDTA, 0.5% BSA, sterile and filtered) and centrifuged at 800 g for 2 minutes. […]
(§1) Cells to be analysed by flow cytometry were passed through 40 μm cell strainers to remove clumps and washed with PBS buffer, centrifuged at 800 g for 2 minutes and resuspended in 100 μl fluorescent activated cell sorting (FACS) buffer (PBS plus 1% BSA) with appropriate fluorochrome conjugated antibodies at a dilution of 1 in 300. […]
A general note: A flow cytometer gives signals particle by particle.

The subject of a further assay is human HPCs. The following applies: human HPCs cultured in vitro; previously demonstrated; cited from earlier work.
In the next assay the test system is E4bp4−/− Lin− BM cells. The assay is described as follows: NK cell development from E4bp4−/− Lin− BM cells on rDLL1/rDLL4-coated plates. The class given is cell-based, mouse. The following applies: plates coated with 10 μg/ml ligand, first 7 days of culture, then IL-15. How it is done:
As E4bp4 appeared to regulate Notch1 expression, it was speculated that enhanced Notch signalling, at an early stage, could potentially affect the development of NK cells from E4bp4^−/− HPCs. To study NK cell development from HPCs in the presence or absence of Notch signalling, Lin^− BM cells were cultured on either OP9 stromal cells or OP9-DL1 cells (that express the Notch ligand delta-like 1) (FIG. 10C). Subsequently, cells were transferred onto fresh OP9 and cultured in the presence of IL-15 (FIG. 11A). When E4bp4^−/− cells were grown on control OP9, no NK cell development was observed, but when the E4bp4^−/− cells were grown on OP9-DL1 for the first part of the culture, remarkably, NK cell development was rescued (FIG. 11B). The same result was not observed when the cells were grown on OP9-DL1 for the second part of the culture (FIG. 11B). To eliminate the influence of stromal cells, tissue culture plates were coated with either recombinant delta-like ligand 1 (rDLL1) or rDLL4 protein. […]
as §1

Turning to `CCOC(=O)C1Cc2ccccc2CN1C(=O)c1ccc(SC)s1` (stereo not drawn) [SR8278, 1,2,3,4-Tetrahydro-2-[[5-(methylthio)-2-thienyl]carbonyl]-3-isoquinolinecarboxylic acid ethyl ester], the “Optimum dose for in vitro NK cell production” value in the assay on HPC culture (added to the HPC culture, optimum time Day 2) was 10 µM. In addition, the “Increase of production of NK cells” value in the assay on HPC culture (upon administration of SR8278) is recorded as “more than 2 fold”. In the assay with E4bp4, the E4bp4 expression result is listed as “increased”. In addition, the “% of NK cells produced” value in the assay with HPCs is 57.5%. For the same molecule, the “Human NK cell development” value in the assay with human HPCs is recorded as “significantly increase”.

B1: rDLL1: recombinant delta-like ligand 1 protein (R&D Systems), coated on culture plates (protein, UniProt O00548 18-723, looked up)
Delta-like protein 1: QVWSSGVFELKLQEFVNKKGLLGNRNCCRGGAGPPPCACRTFFRVCLKHYQASVSPEPPCTYGSAVTPVLGVDSFSLPDGGGADSAFSNPIRFPFGFTWPGTFSLIIEALHTDSPDDLATENPERLISRLATQRHLTVGEEWSQDLHSSGRTDLKYSYRFVCDEHYYGEGCSVFCRPRDDAFGHFTCGERGEKVCNPGWKGPYCTEPICLPGCDEQHGFCDKPGECKCRVGWQGRYCDECIRYPGCLHGTCQQPWQCNCQEGWGGLFCNQDLNYCTHHKPCKNGATCTNTGQGSYTCSCRPGYTGATCELGIDECDPSPCKNGGSCTDLENSYSCTCPPGFYGKICELSAMTCADGPCFNGGRCSDSPDGGYSCRCPVGYSGFNCEKKIDYCSSSPCSNGAKCVDLGDAYLCRCQAGFSGRHCDDNVDDCASSPCANGGTCRDGVNDFSCTCPPGYTGRNCSAPVSRCEHAPCHNGATCHERGHRYVCECARGYGGPNCQFLLPELPPGPAVVDLTEKLEGQGGPFPWVAVCAGVILVLMLLLGCAAVVVCVRLRLQKHRPPADPCRGETETMNNLANCQREKDISVSIIGATQIKNTNKKADFHGDHSADKNGFKARYPAVDYNLVQDLKGDDTAVRDAHSKRDTKCQPQGSSGEEKGTPTTLRGGEASERKRPDSGCSTSKDTKYQSVYVISEEKDECVIATEV
For B1, the “Rescue of NK cell production in the absence of E4bp4” value in the assay with E4bp4−/− Lin− BM cells is “Only a very partial rescue”.

(Values after US11566226B2, “Natural killer cells” (Imperial College of Science, Technology and Medicine, priority 2017, dated 2023).)
